Here are results for twelve molecules from patent US7163957B2, “3-(Cyclopenten-1-yl)-benzyl-or 3-(cyclopenten-1-yl)-heteroarylmethyl-amine derivatives and use thereof as medicines for treating schizophrenia” (Pierre Fabre Medicament, priority 2002, dated 2007).

The structures appear in SMILES notation. Counter-ions that a name gives are not always drawn.

The test system of data set [1] is D2 receptors. In words: Antagonist activity of the D2 receptors in vivo: inhibition of the behavior induced by methylphenidate. The following applies: Rattus norvegicus, rats, oral route, read-out: Normalization ED50. The source says: 3—Evaluation of the antagonist activity of the D2 receptors in vivo.
The next data set concerns catalepsy. The data set is described as follows: Cataleptigenic effects (catalepsy). It counts as in vivo. As to conditions: rats; for ED50: rat, in vivo, oral route; for cataleptigenic effects (in words): high doses (i.e. 40 mg/kg). The source says: 4—Evaluation of the cataleptigenic effects of the compounds of the invention.
Another data set deals with T1, 5-HT1A receptors (Homo sapiens, UniProt P08908).
T1 sequence (P08908 1-422): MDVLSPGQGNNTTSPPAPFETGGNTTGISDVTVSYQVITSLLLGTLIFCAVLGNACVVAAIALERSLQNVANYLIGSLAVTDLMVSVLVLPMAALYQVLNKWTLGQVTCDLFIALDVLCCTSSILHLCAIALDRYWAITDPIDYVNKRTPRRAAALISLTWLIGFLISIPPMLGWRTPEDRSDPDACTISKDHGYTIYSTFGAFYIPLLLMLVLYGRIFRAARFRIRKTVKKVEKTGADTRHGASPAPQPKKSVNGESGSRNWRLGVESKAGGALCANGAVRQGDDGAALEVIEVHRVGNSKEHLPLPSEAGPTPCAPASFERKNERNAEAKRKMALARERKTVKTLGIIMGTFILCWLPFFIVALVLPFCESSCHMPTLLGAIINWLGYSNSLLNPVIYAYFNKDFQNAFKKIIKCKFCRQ
In words: Affinity for the 5-HT1A receptors, displacement of [3H]8-OH-DPAT. It counts as binding. The following applies: for Ki: displacement of [3H]8-OH-DPAT, mean of at least 3 experiments, read-out: 5-HT1A pKi (converted). The procedure: 2—Measurement of the affinity of the compounds of the invention for the 5-HT1A receptors.
The affinity in vitro of the compounds of the invention for the receptors of the 5-HT1A subtype was determined by measuring the displacement of [^3H]8-OH-DPAT (TRK 850; 160-240 Ci/mmol).
The pKi values, (pKi =−log Ki), are given in the form of the mean±SEM of at least 3 experiments.

Data set [2] has as its target D2 receptors (Homo sapiens, UniProt P14416). The data set is described as follows: Affinity for the D2 receptors, displacement of (3H) YM-09151-2. The following applies: for Ki: displacement of (3H) YM-09151-2, mean of at least 3 experiments, read-out: D2 pKi (converted). It counts as binding. The text has this:
1—Measurement of the affinity of the compounds of the invention for the D2 receptors.
The pKi values, (pKi=−log Ki), are given in the form of the mean±SEM of at least 3 experiments.

Sequence of D2 receptors (Homo sapiens, UniProt P14416) (P14416 whole entry): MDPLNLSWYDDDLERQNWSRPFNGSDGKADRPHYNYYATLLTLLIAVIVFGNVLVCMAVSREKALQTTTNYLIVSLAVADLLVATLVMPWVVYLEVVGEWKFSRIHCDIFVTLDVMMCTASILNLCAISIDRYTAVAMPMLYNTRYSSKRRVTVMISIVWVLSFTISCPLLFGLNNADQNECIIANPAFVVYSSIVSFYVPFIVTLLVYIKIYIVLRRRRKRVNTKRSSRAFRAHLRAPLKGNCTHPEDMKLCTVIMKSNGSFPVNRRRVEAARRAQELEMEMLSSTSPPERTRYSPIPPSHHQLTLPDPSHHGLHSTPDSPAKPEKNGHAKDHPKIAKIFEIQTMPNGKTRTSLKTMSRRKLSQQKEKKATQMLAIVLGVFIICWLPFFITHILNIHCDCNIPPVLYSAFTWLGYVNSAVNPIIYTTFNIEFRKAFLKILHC

Broadly, the melting point is the temperature of the solid-liquid transition. `CC1(C)Cc2cccc(OCCNCc3cccc(C4=CCCC4)c3)c2O1` (as salt: fumarate) [Compound 1a, [2-(2,2-Dimethyl-2,3-dihydrobenzofuran-7-yloxy)ethyl]-(3-cyclopenten-1-ylbenzyl)amine] returned a melting point of 146 °C.
One may read the ED50 as the dose that gives a 50% effect, or the effect in half of the subjects. In the case of `CNc1cc(OC)c(C(=O)NC2CCN(Cc3ccccc3)C2C)cc1Cl` (stereo not shown) [nemonapride, reference compound], the median effective dose (ED50) in the data set with D2 receptors [1] is 1.5 mg/kg; in the data set on catalepsy, 5 mg/kg. For the same molecule, the “affinity for the 5-HT1A receptors (in words)” value on 5-HT1A receptors is recorded as “high affinity”.
Molecule `CC1(C)Cc2cccc(OCCNCc3cncc(C4=CCCC4)c3)c2O1` (as salt: fumarate) [Compound 1b, [2-(2,2-Dimethyl-2,3-dihydrobenzofuran-7-yl-oxy)ethyl]-(5-cyclopenten-1-ylpyridin-3-ylmethyl)amine] showed a melting point of 141 °C.
`C1=C(c2cccc(CNCCOc3cccc4c3OC3(CC3)C4)c2)CCC1` (as salt: maleate) [Compound 1f] had a melting point of 180 °C.
For `CC1(C)Cc2cccc(OCCNCc3cccc(C4=CCCC4)c3)c2O1` [Compound 1a, [2-(2,2-Dimethyl-2,3-dihydrobenzofuran-7-yloxy)ethyl]-(3-cyclopenten-1-ylbenzyl)amine], the Ki at D2 receptors [2] was 0.316 nM. Besides, the 50% effective dose (ED50) with D2 receptors [1] was determined as 1.3 mg/kg. In addition, in the data set with catalepsy, the ED50 is greater than 40 mg/kg and the “cataleptigenic effects (in words)” value is reported as “free of any cataleptigenic effects”. In addition, at 5-HT1A receptors, the “affinity for the 5-HT1A receptors (in words)” value was “high affinity” and the Ki is 6.31 nM.
For the molecule `C1=C(c2cccc(CNCCOc3cccc4c3OC3(CC3)C4)c2)CCC1` [Compound 1f], the Ki at D2 receptors [2] was 0.631 nM. The ED50 with D2 receptors [1] is 0.63 mg/kg. Besides, in the data set with catalepsy, the median effective dose (ED50) is greater than 40 mg/kg and the “cataleptigenic effects (in words)” value is “free of any cataleptigenic effects”. At 5-HT1A receptors, the “affinity for the 5-HT1A receptors (in words)” value is “high affinity” and the Ki is 6.31 nM.
For the molecule `C1=C(c2cccc(CNCCOc3cccc4c3OCC4)c2)CCC1` (as salt: fumarate) [Compound 1e, [2-(2,3-Dihydrobenzofuran-7-yloxy)ethyl]-(3-cyclopenten-1-ylbenzyl)amine], the melting point turned out to be 118 °C.
Take `Cc1nc2n(c(=O)c1CCN1CCC(c3noc4cc(F)ccc34)CC1)CCCC2` [Risperidone, risperidone, reference compound]: the “affinity for the D2 receptors (in words)” value on D2 receptors [2] is listed as “good affinity”. Moreover, in the data set with D2 receptors [1], the ED50 amounted to 6.5 mg/kg. Also, on 5-HT1A receptors, the “affinity for the 5-HT1A receptors (in words)” value is “low affinity”.
In turn, `Cc1cc2cccc(OCCNCc3cccc(C4=CCCC4)c3)c2o1` (as salt: fumarate) [Compound 1d, [2-(2-Methylbenzofuran-7-yloxy)ethyl]-(3-cyclopenten-1-ylbenzyl)amine] had a melting point of 133 °C.
Turning to `O=C(CCCN1CCC(O)(c2ccc(Cl)cc2)CC1)c1ccc(F)cc1` [haloperidol, reference compound], the values for the median effective dose (ED50) in the data set with D2 receptors [1] and in the data set on catalepsy were 0.46 mg/kg and 0.92 mg/kg, respectively. For the same molecule, on 5-HT1A receptors, the “affinity for the 5-HT1A receptors (in words)” value was “low affinity”.
The molecule `C1=C(c2cccc(CNCCOc3cccc4ccoc34)c2)CCC1` (as salt: fumarate) [Compound 1c, [2-(Benzofuran-7-yloxy)ethyl]-(3-cyclopenten-1-ylbenzyl)amine] registered a melting point of 126 °C.
On the same count and under the same terms, the value for `CC1(C)Cc2cccc(OCCNCc3cccc(C4=C(F)CCC4)c3)c2O1` (as salt: fumarate) [Compound 1g, [2-(2,2-Dimethyl-2,3-dihydrobenzofuran-7-yl-oxy)ethyl]-[3-(2-fluorocyclopenten-1-yl)benzyl]amine] was 145 °C.
